Series [1] in a line: Oral PK of nanomilled formulations in adult SD rats. It is filed as in vivo, rat. Conditions: rat, in vivo, po, 100 mg/kg. The method, then: The test item, the stabilizer (HPC-SSL) and the surfactant (SDS) were accurately weighed and transferred in a 15-mL amber glass jar charged with 6 mL of yttrium-stabilized zirconia beads (0.8 mm). The suspension was brought to final weight with water in order to achieve the desired final concentration. The formulation was mixed using a vortex for at least 1 minute and then homogenized using a roller mill (Unitized Jar Mill, Model 755 RMV from U.S. Stoneware (purchased from Fisher Scientific Canada cat #08-381-1) at 50 rpm for 48 hours.
For the animal study, the suspensions prepared at 50 mg/mL were diluted to 10 mg/mL using a blank vehicle prepared using the same proportions of excipients as those indicated in Table I. By diluting the concentrated suspension of AVR-84 a clear solution was obtained whereas for AVR-48 the solution was a homogeneous cloudy solution.
Animals and dosing: The male SD rats (N=3) were obtained from Charles River. Each animal was weighed before the administration of the test item. […] At the specified time points, t=15′, 30′, 1 h, 2 h, 3 h, 4 h, 6 h, 8 h and 24 h (N=3), blood (100 μL) was collected via the saphenous vein using MINIVETTE® POCT K3-EDTA. The blood samples were centrifuged for 10 min at 965 g and 4° C. within 30 min of collection, to obtain plasma. Plasma samples were kept frozen at −80° C. The plasma samples were thawed on ice and kept on ice during the sample preparation. Thirty μL of plasma samples were mixed with 75 μL of precipitation solution (80% acetonitrile and 20% methanol containing IS) was added. Samples were mixed and centrifuged at 3500 rpm for 10 min at 4° C. Forty μL of the supernatant was transferred to a 96 well plate, and 80 μL of water+0.1% formic acid was added and analyzed using the in house developed HPLC method.

Series [2] concerns hyperoxia-exposed BPD mouse model. The series can be described thus: Hyperoxia-exposed BPD mouse model: dose response and lung morphometry. It is filed as in vivo. Particulars: mouse, in vivo. The method, then:
Simultaneously, the AVR-48 nanosuspension formulation IN (0.11 mg/kg) was tested as well as in solution form, IP and IV (10 mg/kg) (through the facial vein), and confirmed that all routes of administration gave similar outcomes. […] From the PK study, as described above, the bioavailability of the drug in the plasma and lungs were similar when delivered as solution formulation via either IN or IP routes. As the goal of this study is to develop AVR-48 as a commercially viable and applicable therapeutic candidate for BPD, the IP route was selected as the preferred mode of drug delivery in neonatal murine pups, with the rationale that it would be easier to deliver the drug systemically to preterm babies IV, rather than the IN route. The results and outcome of all the routes of administration have been presented in a cumulative manner, as the endpoint was similar for all routes of administration. […] FIG. 1 is a dose response study of AVR-48 at different doses of […], given IP. ****p<0.0001. N=5-7 mice per group. 10 mg/kg (IP) was selected as the most efficacious dose. IP: intraperitoneal; Hyp: hyperoxia; BPD: Bronchopulmonary dysplasia.
Formulation of AVR-48 for efficacy and toxicokinetic studies. For the mouse dose response efficacy studies, AVR-48 was reconstituted in 0.9% sterile normal saline to give a final dose concentration of […] as a colorless solution, and injected IP (30 μl) on P2 and P4. The PLGA encapsulated AVR-48 or the GFP-tagged analog was resuspended in deionized sterile water to make a nanosuspension with final dose concentration of 0.025, 0.05 and 0.11 mg/kg/drop. The surfactant Curosurf® (Cheisi Parma, Italy), available commercially, was delivered IN at a volume of 3 μl per nostril, on P2 and P4. For the toxicokinetic study of AVR-48 in rat pups, a formulation of 10% DMSO, 20% tetraglycol, 20% PEG 400, and 50% sterile water was made fresh before administration (Shah, Das et al. 2021).
(§1) For the hyperoxia experiment, newborn pups were exposed to 100% hyperoxia (P0), along with their mothers, in cages in an airtight Plexiglas chamber (OxyCycler; Biospherix, Redfield, NY, USA) as described previously by the present inventors (Syed, Das et al., 2017, Leary, Das et al. 2019, Das, Acharya et al. 2020, relevant portions incorporated herein) for 4 consecutive days (till P4) and removed to RA on P5 to be recovered till P14, so as to emulate the human BPD condition. All pups were sacrificed on P14 for further experimental analyses. The pups without any hyperoxia exposure served as the corresponding RA (normoxia) controls.
Histology, immunohistochemistry and immunofluorescence. Both the RA control and BPD mice were anesthetized (using an overdose of a cocktail of xylazine-ketamine) and lung and heart tissues were harvested after perfusion and fixed overnight in 4% paraformaldehyde. Fixed tissues were then washed in fresh PBS, dehydrated using 70% ethanol, cleared, and embedded in paraffin to be sectioned and stained with hematoxylin and eosin (H&E) for lung morphometry or immunohistochemistry/immunofluorescence as previously described (Leary, Das et al. 2019, Das, Achaiya et al. 2020, Das, Curstedt et al. 2020). Immunofluorescence staining was done for Ki67 (Abcam, 1:10) and Von Wilebrand Factor (vWF-DAKO, 1:100) on lung paraffin sections following the protocol as described earlier (Leary, Das et al. 2019) while TUNEL staining was done following the manufacturer's instructions (Roche).
Morphometry and quantification. To study chord length, septal thickness and radial alveolar count in the lungs, RV, LV and IVS thickness, 5 μm-thick left-lobe lung and heart paraffin-embedded sections were stained with H&E. Multiple randomly chosen areas (at least 10 areas) from each section were photographed using 100× total magnification. […]

Series [3] deals with T1, TLR4 (Homo sapiens, UniProt O00206).
T1 construct: Cell lysates were prepared, total protein was quantified and treated with different concentrations; host or cells: THP-1 cells stimulated with PMA for 48 h, then lysed
The series can be described thus: TLR4 assay: unbound TLR4 ELISA in PMA-stimulated THP-1 cell lysates. It is filed as binding. Particulars: THP-1 human monocyte cells. The method, then:
FIG. 26A, TLR4 assay: 1×10^5 THP cells (ATCC) were seeded in 24 well plates and stimulated with phorbol myristyl actetate (PMA, 200 ng/mL) for 48 h. Cell lysates were prepared, total protein was quantified and treated with different concentrations (4, 16, 62.5 and 250 μM) of the AVR-48 for 2 h. ELISA was performed after to assess unbound TLR4 following manufacturer's instruction (Raybiotech). TLR4 IC50 of the AVR-48 was calculated using GraphPad Prism7.04.

The test system of series [4] is hyperoxia-exposed BPD mouse model. The experiment in a line: BPD mouse model: bronchoalveolar lavage fluid (BALF) analysis. It is filed as in vivo. Particulars: 10 mg/kg; vs BPD group.
Text: as §1
Bronchoalveolar lavage fluid (BALF) Analysis. Pups were sacrificed on PN14, and the trachea was cannulated with a small-caliber needle by instilling PBS endotracheally at […] pressure for 15 minutes. Two volumes of 300 μL of cold 1×PBS were instilled, gently aspirated, and pooled. Samples were centrifuged at 1000×g for 10 minutes at 4° C. The supernatant was collected, and total protein was quantified using the Pierce™ BCA Protein Assay Kit (Fisher Scientific Co, Houston, TX). The total cell count was done using the TC20 cell counter (BioRad, Hercules, CA). Similar method was followed for analyzing the protein concentration in BAL fluid collected from preterm lambs.

In series [5] the test system is human cord blood monocytes (CBMC). The series can be described thus: Cytokines in human cord blood monocytes (CBMC). It is filed as cell-based. Particulars: compound alone (10 μM) or with LPS, compared with only LPS. An excerpt: IL-12p40, is a marker for the innate immune response to infection and is down regulated in CBMC.

The text below walks through data of patent publication US12440471B2, “Compositions and methods for the treatment of bronchopulmonary dysplasia (BPD) and BPD-associated pulmonary hypertension” (AyuVis Research, Inc., priority 2021, dated 2025).

T1 sequence (O00206 24-839): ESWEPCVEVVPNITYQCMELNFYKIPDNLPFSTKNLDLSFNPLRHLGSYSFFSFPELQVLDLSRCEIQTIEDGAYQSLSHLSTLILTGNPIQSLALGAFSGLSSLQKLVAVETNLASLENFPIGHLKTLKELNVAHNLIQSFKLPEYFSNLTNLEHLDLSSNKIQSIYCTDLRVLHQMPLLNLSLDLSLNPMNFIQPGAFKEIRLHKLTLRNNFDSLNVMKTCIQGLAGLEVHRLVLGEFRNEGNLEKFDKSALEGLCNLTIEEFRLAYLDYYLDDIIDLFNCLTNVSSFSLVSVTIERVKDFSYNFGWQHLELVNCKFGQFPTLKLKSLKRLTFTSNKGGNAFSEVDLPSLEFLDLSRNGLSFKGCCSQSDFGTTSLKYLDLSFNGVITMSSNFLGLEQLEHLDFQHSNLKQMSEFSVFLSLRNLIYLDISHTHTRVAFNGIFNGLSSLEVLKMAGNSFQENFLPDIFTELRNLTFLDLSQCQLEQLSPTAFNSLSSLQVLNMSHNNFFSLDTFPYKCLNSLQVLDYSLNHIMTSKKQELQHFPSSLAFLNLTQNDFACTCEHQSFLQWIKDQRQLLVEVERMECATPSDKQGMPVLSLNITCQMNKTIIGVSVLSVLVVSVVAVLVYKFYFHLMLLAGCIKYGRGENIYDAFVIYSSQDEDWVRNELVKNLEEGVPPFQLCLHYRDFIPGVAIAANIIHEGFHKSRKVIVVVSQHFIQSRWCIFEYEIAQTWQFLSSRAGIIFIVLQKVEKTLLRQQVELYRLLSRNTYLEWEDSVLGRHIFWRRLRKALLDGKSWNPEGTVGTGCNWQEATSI

On to `CC(=O)N[C@@H]1C(Oc2ccc3nonc3c2)OC(CO)C(O)C1O` (stereo partly shown) [AVR-84], for which, in series [1], the peak level (Cmax) was 4.56 µM; the Tmax – broadly, the time from dosing to the highest level – amounted to 0.5 ± 0.0 h; the “half-life (T v2)” value was found to be 1.66 ± 1.0 h; the plasma concentration profile result is listed as “linear decline in drug concentration”.
Take `CC(=O)NC1[C@H](Oc2ccc(C(=O)N[C@@H]3OC(CO)[C@@H](O)[C@H](O)C3NC(C)=O)cc2)OC(CO)[C@@H](O)[C@@H]1O` (stereo partly shown) [Compound 3]: the “inflammatory cytokines in neonatal mouse pups with BPD” value in series [2] is on record as “decrease inflammatory cytokines”. Moreover, the “binding to TLR4” value in series [3] was “bind TLR4”.
Consider `CC(=O)N[C@@H]1C(Oc2ccc(B3OC(C)(C)C(C)(C)O3)cc2)OC(CO)C(O)C1O` (stereo partly shown) [Compound 32], for which the “inflammatory cytokines in neonatal mouse pups with BPD” value in series [2] is reported as “decrease inflammatory cytokines”. For the same compound, the “binding to TLR4” value in series [3] is on record as “bind TLR4”.
Turning to `CCOC(=O)C1=CCCC[C@H]1S(=O)(=O)Nc1ccc(F)cc1Cl` [TAK 242, reference compound], the “total inflammatory cells in BALF” value in series [4] is recorded as “did not affect”. Moreover, in series [5], the IL-12p40 response result was “decrease the LPS induced increase in IL-12p40 level”.
